Assay results: patent US12383562B2, “Application of metal complex” (Hunan Fangshengtai Medical Technology Co., Ltd., priority 2019, dated 2025)

Test system: mice with inflammatory pain
Experiment: Analgesic activity: CFA-induced inflammatory pain in mice, Von Frey test (paw withdrawal threshold)
Type: in vivo, Kunming mice
Details: for response to the compound (pain threshold): CFA mice, intraperitoneal administration, approximately 0.03 mmol/kg (9, 10 or 11 mg/kg), seven mice; for change of paw withdrawal threshold after injection of drug: drug injected 24 hours after CFA, mice with inflammatory pain
Experimental: The analgesic assays of three vanadium compounds (bis(maltolato)oxovanadium, bis(ethylmaltolato)oxovanadium, and bis(kojato)oxovanadium) in mice are presented below. Some of the results are shown in FIG. 1, where S1 is bis(maltolato)oxovanadium, S2 is bis(ethylmaltolato)oxovanadium, S3 is bis(kojato)oxovanadium, and thepositive group (i.e., a positive control group) is aspirin group.
10 μl of complete Freund's adjuvant (CFA) was injected subcutaneously into the plantar surface of the left hindpaws of mice (♂ Kunming mice, 22-40 g) to produce inflammation. Von Frey tests were performed at 24 hours after injection or later to determine pain thresholds, i.e., under the guidance of a Dixon's Up-Down method, mice were induced with Von Frey fibers to have mechanical withdrawal of their hindpaws data were collected, and their 50% paw withdrawal thresholds (referred to as paw withdrawal threshold or PWT), namely the pain thresholds, were calculated. Afterwards, the mice were divided into a physiological saline group, a positive control group and a drug group, and injected intraperitoneally with 0.4 ml of physiological saline, 0.4 ml of aspirin (acetylsalicylic acid, or ASA) Tris-buffer solution at a concentration of 20 mg/ml and a mixed solution of a tested compound and 0.4 ml of cellulose solution (1%), respectively. Then, changes in the pain threshold were monitored with the Von Frey tests.

SMILES: Cc1occc(=O)c1[O][V](=[O])[O]c1c(C)occc1=O [S1, bis(maltolato)oxovanadium(IV)]
- response to the compound (pain threshold): all seven mice showed a response to the compound with a general increase in pain threshold
- change of paw withdrawal threshold after injection of drug: significant increase in the paw withdrawal threshold

SMILES: CCc1occc(=O)c1[O][V](=[O])[O]c1c(CC)occc1=O [S2, bis(ethylmaltolato)oxovanadium(IV)]
- response to the compound (pain threshold): all seven mice showed a response to the compound with a general increase in pain threshold
- change of paw withdrawal threshold after injection of drug: significant increase in the paw withdrawal threshold

SMILES: [O]=[V-2]12([O]C3=COC(CO)=CC3=[O+]1)[O]C1=COC(CO)=CC1=[O+]2 [S3, bis(kojato)oxovanadium(IV)]
- response to the compound (pain threshold): all seven mice showed a response to the compound with a general increase in pain threshold
- change of paw withdrawal threshold after injection of drug: significant increase in the paw withdrawal threshold
